Measurements reported in patent US10155742B2, “Halofuginol derivatives and their use in cosmetic and pharmaceutical compositions” (President and Fellows of Harvard College, priority 2012, dated 2018).

What was measured:
[1] = test system: primary human prostate stromal (hPrSc) cells, col1a1; experiment: Type I collagen (col1a1) mRNA in primary human prostate stromal cells; type: cell-based; conditions: treated twice for 48 hours, FIG. 27
Procedure: (§1) Primary human prostate stromal (hPrSc) cells were left in low-serum media (0.2%) for 24 hours, and treated consecutively twice for 48 hours, halofuginone (HF) or halofuginol (HFol) at the concentrations indicated. Relative mRNA levels of the myofibroblastic markeralpha 1 collagen type 1 (col1a1) was measured by quantitative real-time PCR using glyceraldehyde-3-phosphate dehydrogenase (GAPDH) as internal control.

[2] = test system: mTORC1 signaling in MEFs; experiment: mTORC1 pathway phosphorylation by Western blot; type: cell-based, mouse; conditions: 100 nM HF, FIG. 16
Procedure: MEFs growing in DME/10% FCS were treated with 100 nM HF or 0.5 μM rapamycin and analyzed by Western blot for phosphorylation of component of the mTor signaling pathway.

[3] = test system: primary human prostate stromal (hPrSc) cells, s100a4; experiment: S100A4 mRNA in primary human prostate stromal cells; type: cell-based; conditions: with or without TGF 10 ng/ml, FIG. 28
Procedure: as §1, with “48 hours with or without tumor-growth factor beta (TGF; 10 ng/ml),” for “48 hours,”, “the fibrosis/tissue invasion marker s100a4” for “the myofibroblastic markeralpha 1 collagen type 1 (col1a1)”

[4] = test system: translation in rabbit reticulocyte lysate (RRL); experiment: In vitro translation assay in rabbit reticulocyte lysate (RRL)
[5] = test system: dermal ECM deposition; conditions: intraperitoneally, added to food, or applied locally; Pines et al. 2003; cited from earlier work
[6] = biological target: T1, ProRS (amino acids 998-1513 of human EPRS) (Homo sapiens, UniProt P07814); experiment: [3H]-HFol binding to immobilized ProRS; conditions: FIG. 3A
T1 construct: Purified 6-his tagged ProRS (amino acids 998-1513 of human EPRS) was immobilized on N-NTA beads; made in house; host or cells: E. coli BL21(DE3), plasmid pKS509
T1 sequence (P07814 998-1512 limits assumed): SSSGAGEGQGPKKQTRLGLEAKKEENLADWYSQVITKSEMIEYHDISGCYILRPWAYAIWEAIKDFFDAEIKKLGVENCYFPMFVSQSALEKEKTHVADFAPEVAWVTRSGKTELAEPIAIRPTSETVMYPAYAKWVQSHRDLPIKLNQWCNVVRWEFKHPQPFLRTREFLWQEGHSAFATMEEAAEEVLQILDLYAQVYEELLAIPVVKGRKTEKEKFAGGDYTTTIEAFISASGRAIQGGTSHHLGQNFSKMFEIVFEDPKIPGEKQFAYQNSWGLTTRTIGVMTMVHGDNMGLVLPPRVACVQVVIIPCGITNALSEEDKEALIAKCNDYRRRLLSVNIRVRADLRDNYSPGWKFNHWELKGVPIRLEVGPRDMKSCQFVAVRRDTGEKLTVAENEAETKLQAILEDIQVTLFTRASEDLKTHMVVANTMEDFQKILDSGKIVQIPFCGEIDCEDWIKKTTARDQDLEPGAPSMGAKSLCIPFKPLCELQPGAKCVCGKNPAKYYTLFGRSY
Procedure: B) [^3H]-HFol binding was assayed as described above in the presence of indicated concentrations of proline. […] IMR90 lung fibroblasts were treated with a siRNAs directed against EPRS (Dharmacon) or a control siRNA mixture for 48 hours, and then treated with HF for 2 hours (pGCN2) and examined for EPRS protein levels, GCN2 total protein and phospho-GCN2 by Western blot. D) EPRS depleted IMR90 cells were compared to control cells with respect to HF induction of the AAR marker CHOP by Q-PCR. Equal concentrations of total cellular protein were loaded in each Western blot lane. CHOP expression was standardized to expression of phosphoglycerate kinase 1 (PGK1) and glyceraldehyde-3-phosphate-dehydrogenase (GAPDH). Data shown are representative of three separate experiments.
Prolyl sulfamoyl adenosine (ProSAd) or alanyl sulfamoyl adenosine (AlaSAd), analogs of the corresponding aminoacyl adenylate, were coincubated with [^3H]-HFol as in FIG. 2. […] Binding of [^3H]-HFol was assayed as in FIG. 3, except that the nucleotide type and concentration was varied as indicated.
To examine HF binding to ProRS, ^3H HFol was synthesized by American Radiochemicals (St. Louis) by reduction of MAZ1310 (3) at the ketone with NaB^3H4, followed by removal of the Boc protecting group with 10% trifluoroacetic acid in dichloromethane, and HPLC purification of the ^3H HFol. 100 nM ^3H HFol was incubated with ProRS immobilized on Ni-NTA beads (Pierce) in 50 mM Tris pH 7.5, 5 mM MgCl2, 20 mM Imidazole, 1 mM DTT, 10% glycerol, and nucleotides, proline, or HF derivatives at room temperature for 10 minutes as indicated. After incubation, beads were washed twice with ice-cold wash buffer (50 mM Tris 7.5; 20 mM Imidazole; 1 mM DTT, 20% glycerol). ^3H HFol bound after washing was measured by liquid scintillation counting. Ni-NTA beads incubated with E. coli extracts lacking tagged ProRS were used as a background reference in all experiments.

[7] = biological target: T2, prolyl tRNA synthetase domain of human EPRS (ProRS) (Homo sapiens, UniProt P07814); conditions: 3H Pro incorporation into tRNA
T2 sequence (P07814 998-1512 limits assumed): T1 sequence (P07814 998-1512 limits assumed)
Procedure: (§2) Activity of the Prolyl tRNA synthetase domain of EPRS (ProRS) was measured as ^3H Pro incorporation into the charged tRNA pool. […] Purified enzyme was visualized as a single band by Laemmli gel electrophoresis/Coomassie staining.
(§3) Purified enzyme was visualized as a single band by Laemmli gel electrophoresis/Coomassie staining. […] In preliminary experiments, the assay was established to be linear over the time (6 min) and conditions used (30 degrees, 2 mM ATP, 1 μg/μl total tRNA purified from rabbit liver).
(§4) For the rapid, quantitative isolation of aminoacylated tRNA^pro from synthetase reaction mixtures, reactions were stopped with 100 μl of ice cold 20 mM MOPS pH6.2, 200 mM NaCl, 10 mM EDTA, 30% Glycerol and placed on ice. Samples were added to 15 μl of packed Mono Q HP beads (GE Healthcare) equilibrated in the same buffer. Samples were incubated with beads on ice for 10 min, beads were pelleted by 5 sec centrifugation in a tabletop microfuge and washed 3× 1 ml of wash buffer (20 mM MOPS pH6.2, 50 mM NaCl), and recovered pellets counted in a liquid scintillation counter. Background binding of ^3H Pro to beads (using reaction mix with either no enzyme added or no tRNA added) was negligible (20-40 cpm).

[8] = de Jonge et al. 2006; cited from earlier work
[9] = biological target: T2, prolyl tRNA synthetase domain of human EPRS (ProRS); experiment: biochemical
Procedure: as §2, §3, §4

[10] = inhibitor 1 μM, anti-myc Western blot, FIG. 2C

In the case of `O=C(C[C@H]1NCCC[C@@H]1O)Cn1cnc2cc(Br)c(Cl)cc2c1=O` (racemic) [HF, 7-bromo-6-chloro-3-[3-(3-hydroxy-2-piperidinyl)-2-oxopropyl]-4(3H)-quinazolinone], the “Type 1 collagen expression in fibroblasts in culture” value [1] is reported as “inhibit”, the “inhibition of mTORC1 signaling / downstream targets” value [2] is reported as “without concomitant inhibition” and the “inhibition of mTORC1 signaling / downstream targets” value ([2]; listed as halofuginone) is reported as “does not directly inhibit”. The “expression of the activated fibroblast marker S100A4” value [3] was “inhibit”, the “translation of Nopropep (proline-free polypeptide)” value [4, 10] was “no effect” and the “translation of Propep (proline dipeptide containing polypeptide)” value [4, 10] was “prevent translation”. For the same compound, the “inhibition of translation of luciferase RNA in RRL” value ([4]; luminescence assay, FIG. 2A/2B) was “inhibited”, the “excess dermal ECM deposition” value [5] was “reduces” and the “competition of [3H]-HFol binding to ProRS” value [6] was “competed”. For the same compound, the “inhibition of ProRS activity” value [7] was “inhibits”, the “toxicity in humans (nausea, vomiting, fatigue, possibly bleeding complications)” value [8] was “some toxicity” and the Ki [9] was 18.3 nM.
